Converted amounts (≈) assume the structure as drawn. A value given as a limit tells only on which side of the number the result lay.

One assay concerns Enterococcus faecalis. Nature of the assay: Antibacterial activity against multidrug resistant Enterococcus faecalis ATCC 51299. The format is functional.
Broadly, the MIC is the lowest concentration that inhibits growth of the organism. A higher MIC goes with weaker potency. For `COc1cc(O)c2c(=O)c(CCC/C=C(\C)CCC=C(C)C)c(-c3ccc(O)cc3O)oc2c1`, inhibition of growth (MIC) required 32 µg/mL (≈ 68.9 µM).

Consider `COc1ccc(-c2cc(=O)c3c(OC)cc(OC)cc3o2)c(OC)c1`, for which the MIC is > 64 µg/mL.

With `CC(C)=CCc1c(-c2ccc(O)cc2O)oc2c3c(cc(O)c2c1=O)OC(C)(C)C=C3` [MORUSIN], it took 5 µg/mL (≈ 11.9 µM) to inhibit growth (MIC).

As for `CCc1c(-c2ccc(OC)cc2OC)oc2cc(OC)cc(OC)c2c1=O`, the MIC was > 64 µg/mL.

Regarding `CCc1c(-c2ccc(O)cc2O)oc2cc(O)cc(O)c2c1=O`, the MIC is > 64 µg/mL.

`C=CCc1c(-c2ccc(O)cc2O)oc2cc(OC)cc(O)c2c1=O` gave an MIC of 64 µg/mL (≈ 188 µM).

Turning to `CCCCCCCCCCc1c(-c2ccc(OC)cc2OC)oc2cc(OC)cc(OC)c2c1=O`, the MIC was > 64 µg/mL.

`O=c1c(CCCCc2ccccc2)c(-c2ccc(O)cc2O)oc2cc(O)cc(O)c12` came in with an MIC of 32 µg/mL (≈ 76.5 µM).

Compound `CCCCCCCCc1c(-c2ccc(O)cc2O)oc2cc(OC)cc(O)c2c1=O` showed an MIC of 16 µg/mL (≈ 38.8 µM).

As for `CC(C)=CCCc1c(-c2ccc(O)cc2O)oc2cc(O)cc(O)c2c1=O`, the MIC stood at 32 µg/mL (≈ 86.9 µM).

Compound `CCCCCc1c(-c2ccc(O)cc2O)oc2cc(O)cc(O)c2c1=O` registered an MIC of 16 µg/mL (≈ 44.9 µM).

As to `CCCCCc1c(-c2ccc(OC)cc2OC)oc2cc(OC)cc(OC)c2c1=O`, the MIC was > 64 µg/mL.

In the case of `CCCCc1c(-c2ccc(O)cc2O)oc2cc(O)cc(O)c2c1=O`, 32 µg/mL (≈ 93.5 µM) was the least that counted as inhibitory (MIC).

In turn, `COc1cc(O)c2c(=O)c(CCCCc3ccccc3)c(-c3ccc(O)cc3O)oc2c1` displayed an MIC of 16 µg/mL (≈ 37 µM).

Turning to `CCCCCCCCCCCCc1c(-c2ccc(OC)cc2OC)oc2cc(OC)cc(OC)c2c1=O`, the minimal inhibitory concentration (MIC) was > 64 µg/mL.

For `CCCCCCCCc1c(-c2ccc(O)cc2O)oc2cc(O)cc(O)c2c1=O`, inhibition of growth (MIC) required 16 µg/mL (≈ 40.2 µM).

Compound `CC(C)=CCc1c(O)ccc(C(=O)[C@@H]2[C@@H](c3ccc(O)cc3O)CC(C)=C[C@H]2c2c(O)cc(O)c3c(=O)c(CC=C(C)C)c(-c4ccc(O)cc4O)oc23)c1O` registered an MIC of 5 µg/mL (≈ 6.57 µM).

With `CCCc1c(-c2ccc(O)cc2O)oc2cc(O)cc(O)c2c1=O`, the MIC is > 64 µg/mL.

With `COc1ccc(-c2oc3cc(OC)cc(OC)c3c(=O)c2CCC=C(C)C)c(OC)c1`, the MIC was > 64 µg/mL.

`CC(C)=CCc1c(-c2ccc(O)cc2O)oc2c(CC=C(C)C)c(O)cc(O)c2c1=O` [KUWANON C]: the MIC is 10 µg/mL (≈ 23.7 µM).

Regarding `CCCCCCCCCCc1c(-c2ccc(O)cc2O)oc2cc(O)cc(O)c2c1=O`, 32 µg/mL (≈ 75 µM) was the least that counted as inhibitory (MIC).

On to `CCCCCCCCCCCCCCCCc1c(-c2ccc(O)cc2O)oc2cc(O)cc(O)c2c1=O`, for which the MIC was > 64 µg/mL.

For `C=CCc1c(-c2ccc(O)cc2O)oc2cc(O)cc(O)c2c1=O`, the MIC is > 64 µg/mL.

As for `O=c1cc(-c2ccc(O)cc2O)oc2cc(O)cc(O)c12` [NORARTOCARPETIN], the minimum inhibitory concentration (MIC) is > 64 µg/mL.

As to `COc1ccc(-c2oc3cc(OC)cc(OC)c3c(=O)c2CCC/C=C(\C)CCC=C(C)C)c(OC)c1`, the MIC was > 64 µg/mL.

In the case of `CCCCCCc1c(-c2ccc(OC)cc2OC)oc2cc(OC)cc(OC)c2c1=O`, the MIC was > 64 µg/mL.

As to `CCCCc1c(-c2ccc(O)cc2O)oc2cc(OC)cc(O)c2c1=O`, the MIC worked out at 32 µg/mL (≈ 89.8 µM).

In another assay the test system is Staphylococcus aureus. Description: Antibacterial activity against methicillin resistant Staphylococcus aureus clinical isolate 003. The format is functional.
In the case of `COc1cc(O)c2c(=O)c(CCC/C=C(\C)CCC=C(C)C)c(-c3ccc(O)cc3O)oc2c1`, the MIC turned out to be 16 µg/mL (≈ 34.4 µM).

As for `COc1ccc(-c2cc(=O)c3c(OC)cc(OC)cc3o2)c(OC)c1`, the MIC is > 64 µg/mL.

The compound `CC(C)=CCc1c(-c2ccc(O)cc2O)oc2c3c(cc(O)c2c1=O)OC(C)(C)C=C3` [MORUSIN] showed an MIC of 5 µg/mL (≈ 11.9 µM).

As for `CCc1c(-c2ccc(OC)cc2OC)oc2cc(OC)cc(OC)c2c1=O`, the MIC was > 64 µg/mL.

With `CCc1c(-c2ccc(O)cc2O)oc2cc(O)cc(O)c2c1=O`, the MIC is > 64 µg/mL.

Compound `C=CCc1c(-c2ccc(O)cc2O)oc2cc(OC)cc(O)c2c1=O` yielded a minimal inhibitory concentration (MIC) of 32 µg/mL (≈ 94 µM).

`CCCCCCCCCCc1c(-c2ccc(OC)cc2OC)oc2cc(OC)cc(OC)c2c1=O`: the MIC is > 64 µg/mL.

Compound `O=c1c(CCCCc2ccccc2)c(-c2ccc(O)cc2O)oc2cc(O)cc(O)c12` came in with an MIC of 16 µg/mL (≈ 38.2 µM).

Turning to `CCCCCCCCc1c(-c2ccc(O)cc2O)oc2cc(OC)cc(O)c2c1=O`, the MIC was 8 µg/mL (≈ 19.4 µM).

As to `CC(C)=CCCc1c(-c2ccc(O)cc2O)oc2cc(O)cc(O)c2c1=O`, the MIC worked out at 32 µg/mL (≈ 86.9 µM).

For `CCCCCc1c(-c2ccc(O)cc2O)oc2cc(O)cc(O)c2c1=O`, the MIC is 16 µg/mL (≈ 44.9 µM).

As to `CCCCCc1c(-c2ccc(OC)cc2OC)oc2cc(OC)cc(OC)c2c1=O`, the MIC is > 64 µg/mL.

Regarding `CCCCc1c(-c2ccc(O)cc2O)oc2cc(O)cc(O)c2c1=O`, the MIC came out at 32 µg/mL (≈ 93.5 µM).

`COc1cc(O)c2c(=O)c(CCCCc3ccccc3)c(-c3ccc(O)cc3O)oc2c1` showed an MIC of 8 µg/mL (≈ 18.5 µM).

As to `CCCCCCCCCCCCc1c(-c2ccc(OC)cc2OC)oc2cc(OC)cc(OC)c2c1=O`, the MIC was > 64 µg/mL.

In the case of `CCCCCCCCc1c(-c2ccc(O)cc2O)oc2cc(O)cc(O)c2c1=O`, the MIC is 16 µg/mL (≈ 40.2 µM).

For the compound `CC(C)=CCc1c(O)ccc(C(=O)[C@@H]2[C@@H](c3ccc(O)cc3O)CC(C)=C[C@H]2c2c(O)cc(O)c3c(=O)c(CC=C(C)C)c(-c4ccc(O)cc4O)oc23)c1O`, the MIC was 2.5 µg/mL (≈ 3.29 µM).

The compound `CCCc1c(-c2ccc(O)cc2O)oc2cc(O)cc(O)c2c1=O` had an MIC of 64 µg/mL (≈ 195 µM).

Take `COc1ccc(-c2oc3cc(OC)cc(OC)c3c(=O)c2CCC=C(C)C)c(OC)c1`: the minimum inhibitory concentration (MIC) was > 64 µg/mL.

In turn, `CC(C)=CCc1c(-c2ccc(O)cc2O)oc2c(CC=C(C)C)c(O)cc(O)c2c1=O` [KUWANON C] showed an MIC of 5 µg/mL (≈ 11.8 µM).

As to `CCCCCCCCCCc1c(-c2ccc(O)cc2O)oc2cc(O)cc(O)c2c1=O`, inhibition of growth (MIC) required 16 µg/mL (≈ 37.5 µM).

For `CCCCCCCCCCCCCCCCc1c(-c2ccc(O)cc2O)oc2cc(O)cc(O)c2c1=O`, the MIC is > 64 µg/mL.

As for `C=CCc1c(-c2ccc(O)cc2O)oc2cc(O)cc(O)c2c1=O`, inhibition of growth (MIC) required 64 µg/mL (≈ 196 µM).

Turning to `O=c1cc(-c2ccc(O)cc2O)oc2cc(O)cc(O)c12` [NORARTOCARPETIN], the MIC is > 64 µg/mL.

For `COc1ccc(-c2oc3cc(OC)cc(OC)c3c(=O)c2CCC/C=C(\C)CCC=C(C)C)c(OC)c1`, the MIC was > 64 µg/mL.

As for `CCCCCCc1c(-c2ccc(OC)cc2OC)oc2cc(OC)cc(OC)c2c1=O`, the MIC is > 64 µg/mL.

In turn, `CCCCc1c(-c2ccc(O)cc2O)oc2cc(OC)cc(O)c2c1=O` yielded an MIC of 16 µg/mL (≈ 44.9 µM).

(Values after ChEMBL document CHEMBL5512659, “Structure optimizing of flavonoids against both MRSA and VRE” (Eur J Med Chem, 2024).)
